Laboratory results published in PubChem BioAssay AID1963869 (Molecular Pharmacology Branch, DTP, NCI, 2024).

Test system: KRAS patient-derived spheroids with HUVEC/MSC, viability
Assay: Anticancer human tumor 323965-272-R-J2-PDC patient-derived pancreatic carcinoma cell line growth inhibition [KRAS2]
Conditions: for viability, T/C: stronger effect = lower value; active = viability on the fitted dose curve at most 10% of control; inactive = the rest
Summary of the method: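 Combination screen of spheroid viability in tumor-cell co-cultures with endothelial (HUVEC) and mesenchymal stem cell stroma. Each agent was tested in half-log dilutions, topping at clinical Cmax or at 10 microM without a known Cmax.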

[1] = curve of first compound, second compound 0.1 µM
[2] = curve of first compound, second compound 0.316 µM
[3] = curve of first compound, second compound 1 µM
[4] = curve of first compound, second compound 3.16 µM
[5] = curve of first compound, second compound 10 µM
[6] = second compound 0.1 µM, first compound 0.0316 µM
[7] = second compound 0.1 µM, first compound 0.1 µM
[8] = second compound 0.1 µM, first compound 0.316 µM
[9] = second compound 0.1 µM, first compound 1 µM
[10] = second compound 0.1 µM, first compound 3.16 µM
[11] = second compound 0.1 µM, first compound 10 µM
[12] = second compound 0.316 µM, first compound 0.0316 µM
[13] = second compound 0.316 µM, first compound 0.1 µM
[14] = second compound 0.316 µM, first compound 0.316 µM
[15] = second compound 0.316 µM, first compound 1 µM
[16] = second compound 0.316 µM, first compound 3.16 µM
[17] = second compound 0.316 µM, first compound 10 µM
[18] = second compound 1 µM, first compound 0.0316 µM
[19] = second compound 1 µM, first compound 0.1 µM
[20] = second compound 1 µM, first compound 0.316 µM
[21] = second compound 1 µM, first compound 1 µM
[22] = second compound 1 µM, first compound 3.16 µM
[23] = second compound 1 µM, first compound 10 µM
[24] = second compound 3.16 µM, first compound 0.0316 µM
[25] = second compound 3.16 µM, first compound 0.1 µM
[26] = second compound 3.16 µM, first compound 0.316 µM
[27] = second compound 3.16 µM, first compound 1 µM
[28] = second compound 3.16 µM, first compound 3.16 µM
[29] = second compound 3.16 µM, first compound 10 µM
[30] = second compound 10 µM, first compound 0.0316 µM
[31] = second compound 10 µM, first compound 0.1 µM
[32] = second compound 10 µM, first compound 0.316 µM
[33] = second compound 10 µM, first compound 1 µM
[34] = second compound 10 µM, first compound 3.16 µM
[35] = second compound 10 µM, first compound 10 µM
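Note: spheroids exposed to agents for 7 days.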
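Throughout, for viability, T/C: 100% = DMSO vehicle control viability.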

COc1cc2nccc(Oc3ccc(NC(=O)C4(C(=O)Nc5ccc(F)cc5)CC4)cc3)c2cc1OC + C=CC(=O)N1CCN(c2nc(=O)n(-c3c(C)ccnc3C(C)C)c3nc(-c4c(O)cccc4F)c(F)cc23)C(C)C1
> 10000 nM: IC50 [1] | IC50 [2] | IC50 [3] | IC50 [4]
1190 nM: IC50 [5]
inactive: viability, T/C [6] 54.7% | viability, T/C [7] 56% | viability, T/C [8] 58.8% | viability, T/C [9] 62.6% | viability, T/C [10] 64.2% | viability, T/C [11] 57.8% | viability, T/C [12] 52.8% | viability, T/C [13] 55.1% | viability, T/C [14] 58.1% | viability, T/C [15] 61.8% | viability, T/C [16] 62.5% | viability, T/C [17] 59.8% | viability, T/C [18] 54.5% | viability, T/C [19] 52.3% | viability, T/C [20] 59.9% | viability, T/C [21] 61.7% | viability, T/C [22] 63.8% | viability, T/C [23] 61.5% | viability, T/C [24] 57.1% | viability, T/C [25] 56.9% | viability, T/C [26] 56.2% | viability, T/C [27] 61.2% | viability, T/C [28] 58.6% | viability, T/C [29] 55.6% | viability, T/C [30] 47.6% | viability, T/C [31] 54.2% | viability, T/C [32] 45.5% | viability, T/C [33] 61.9% | viability, T/C [34] 29.4% | viability, T/C [35] 44.2%

CN(C)C/C=C/C(=O)Nc1cc2c(Nc3ccc(F)c(Cl)c3)ncnc2cc1O[C@H]1CCOC1 + C=CC(=O)N1CCN(c2nc(OCC3CCCN3C)nc3c2CCN(c2cccc4cccc(C)c24)C3)CC1CC#N
1.77 nM: IC50 [1]
inactive: viability, T/C (second compound 0.0316 µM, first compound 0.000316 µM) 75.1% | viability, T/C (second compound 0.0316 µM, first compound 0.001 µM) 66.2% | viability, T/C (second compound 0.0316 µM, first compound 0.00316 µM) 55.9% | viability, T/C (second compound 0.0316 µM, first compound 0.01 µM) 49.6% | viability, T/C (second compound 0.0316 µM, first compound 0.0316 µM) 49.9% | viability, T/C (second compound 0.0316 µM, first compound 0.1 µM) 47.9% | viability, T/C (second compound 0.1 µM, first compound 0.000316 µM) 66% | viability, T/C (second compound 0.1 µM, first compound 0.001 µM) 52.5% | viability, T/C (second compound 0.1 µM, first compound 0.00316 µM) 48.4% | viability, T/C (second compound 0.1 µM, first compound 0.01 µM) 42.4% | viability, T/C [6] 40.9% | viability, T/C [7] 42.3% | viability, T/C (second compound 0.316 µM, first compound 0.000316 µM) 56.2% | viability, T/C (second compound 0.316 µM, first compound 0.001 µM) 51.1% | viability, T/C (second compound 0.316 µM, first compound 0.00316 µM) 53.2% | viability, T/C (second compound 0.316 µM, first compound 0.01 µM) 43.1% | viability, T/C [12] 39.2% | viability, T/C [13] 39.1% | viability, T/C (second compound 1 µM, first compound 0.000316 µM) 62.5% | viability, T/C (second compound 1 µM, first compound 0.001 µM) 52.4% | viability, T/C (second compound 1 µM, first compound 0.00316 µM) 52.6% | viability, T/C (second compound 1 µM, first compound 0.01 µM) 41.9% | viability, T/C [18] 40.7% | viability, T/C [19] 42.5% | viability, T/C (second compound 3.16 µM, first compound 0.000316 µM) 36.8% | viability, T/C (second compound 3.16 µM, first compound 0.001 µM) 34.9% | viability, T/C (second compound 3.16 µM, first compound 0.00316 µM) 19.4% | viability, T/C (second compound 3.16 µM, first compound 0.01 µM) 17.3% | viability, T/C [24] 17% | viability, T/C [25] 14.7%
13 nM: IC50 (curve of first compound, second compound 0.0316 µM)
< 0.316 nM: IC50 [4]
2.3 nM: IC50 [2] | IC50 [3]

CC(C)NCC(C(=O)N1CCN(c2ncnc3c2C(C)CC3O)CC1)c1ccc(Cl)cc1 (configuration not stated) + CC1OCC2(CCN(c3cnc(Sc4ccnc(N)c4Cl)c(N)n3)CC2)C1N
active: viability, T/C [27] 7.8% | viability, T/C [28] 5.77% | viability, T/C [29] 3.98% | viability, T/C [33] 6.63% | viability, T/C [34] 4.73% | viability, T/C [35] 2.87%
143 nM: IC50 [2]
732 nM: IC50 [1]
inactive: viability, T/C [6] 84.6% | viability, T/C [7] 72.5% | viability, T/C [8] 57.6% | viability, T/C [9] 44.9% | viability, T/C [10] 42.1% | viability, T/C [11] 32.4% | viability, T/C [12] 60.2% | viability, T/C [13] 54.2% | viability, T/C [14] 40.8% | viability, T/C [15] 29% | viability, T/C [16] 27.9% | viability, T/C [17] 23.6% | viability, T/C [18] 38.5% | viability, T/C [19] 35.3% | viability, T/C [20] 21.5% | viability, T/C [21] 12.7% | viability, T/C [22] 12.6% | viability, T/C [23] 10.4% | viability, T/C [24] 24.8% | viability, T/C [25] 20.3% | viability, T/C [26] 12.6% | viability, T/C [30] 20.8% | viability, T/C [31] 19.1% | viability, T/C [32] 11.5%
< 31.6 nM: IC50 [3] | IC50 [4] | IC50 [5]

CC1(C)CCC(CN2CCN(c3ccc(C(=O)NS(=O)(=O)c4ccc(NCC5CCOCC5)c([N+](=O)[O-])c4)c(Oc4cnc5[nH]ccc5c4)c3)CC2)=C(c2ccc(Cl)cc2)C1 + CC1OCC2(CCN(c3cnc(Sc4ccnc(N)c4Cl)c(N)n3)CC2)C1N
1070 nM: IC50 [2]
inactive: viability, T/C [6] 81.6% | viability, T/C [7] 74.7% | viability, T/C [8] 78% | viability, T/C [9] 65.3% | viability, T/C [10] 10.1% | viability, T/C [12] 56.9% | viability, T/C [13] 63.4% | viability, T/C [14] 49.9% | viability, T/C [15] 53% | viability, T/C [18] 43.9% | viability, T/C [19] 45.9% | viability, T/C [20] 40.5% | viability, T/C [21] 34% | viability, T/C [24] 37.3% | viability, T/C [25] 32.7% | viability, T/C [26] 26.6% | viability, T/C [27] 20.2% | viability, T/C [30] 24.6% | viability, T/C [31] 24.5% | viability, T/C [32] 25.4% | viability, T/C [33] 20.9%
1380 nM: IC50 [1]
< 31.6 nM: IC50 [3] | IC50 [4] | IC50 [5]
active: viability, T/C [11] 3.29% | viability, T/C [16] 6.85% | viability, T/C [17] 2.39% | viability, T/C [22] 5.15% | viability, T/C [23] 1.19% | viability, T/C [28] 4.11% | viability, T/C [29] 1.21% | viability, T/C [34] 2.63% | viability, T/C [35] 0.27%

COc1cc2nc(C)nc(NC(C)c3cc(N)cc(C(F)(F)F)c3)c2cc1OC1CCOC1 (configuration not stated)
inactive: viability, T/C (compound 0.316 µM) 75.7% [middle of 17 runs] | viability, T/C (compound 3.16 µM) 77.2% [middle of 17 runs]
> 10000 nM: IC50 (compound alone, run of 08/19/2021) | IC50 (compound alone, run of 08/26/2021) | IC50 (compound alone, run of 09/02/2021)

Cn1nccc1Nc1nccc(-c2cc3c(s2)C(C)(C)N(CCN2CCOCC2)C3=O)n1 + CC1OCC2(CCN(c3cnc(Sc4ccnc(N)c4Cl)c(N)n3)CC2)C1N
active: viability, T/C [34] 9.11% | viability, T/C [35] 12.2%
inactive: viability, T/C [6] 66.1% | viability, T/C [7] 67.3% | viability, T/C [8] 55.8% | viability, T/C [9] 51% | viability, T/C [10] 35.9% | viability, T/C [11] 36.4% | viability, T/C [12] 56% | viability, T/C [13] 50.3% | viability, T/C [14] 36.2% | viability, T/C [15] 33.1% | viability, T/C [16] 33.6% | viability, T/C [17] 33.5% | viability, T/C [18] 32.9% | viability, T/C [19] 32.4% | viability, T/C [20] 27.4% | viability, T/C [21] 22% | viability, T/C [22] 23.3% | viability, T/C [23] 22.9% | viability, T/C [24] 17.4% | viability, T/C [25] 16% | viability, T/C [26] 13.9% | viability, T/C [27] 14.7% | viability, T/C [28] 14.7% | viability, T/C [29] 18.8% | viability, T/C [30] 14.4% | viability, T/C [31] 12.8% | viability, T/C [32] 9.42% | viability, T/C [33] 8.83%
102 nM: IC50 [2]
806 nM: IC50 [1]
< 31.6 nM: IC50 [3] | IC50 [4] | IC50 [5]

CC(C)n1nc(-c2ccc3oc(N)nc3c2)c2c(N)ncnc21
inactive: viability, T/C (compound 0.000316 µM) 91% [middle of 5 runs] | viability, T/C (compound 0.001 µM) 81.3% [middle of 5 runs] | viability, T/C (compound 0.00316 µM) 54.4% [middle of 5 runs] | viability, T/C (compound 0.01 µM) 33.1% [middle of 5 runs] | viability, T/C (compound 0.0316 µM) 24.4% [middle of 5 runs] | viability, T/C (compound 0.1 µM) 21.4% [middle of 5 runs]
4 nM [middle of 5 runs]: IC50 (curve of compound)
